Laboratory results reported in PMC5650337, “A peptidomimetic with a chiral switch is an inhibitor of epidermal growth factor receptor heterodimerization” (Oncotarget, 2017).
Read-outs that look alike come from different tables or passages of the source. Where a SMILES comes first, the peptide text is derived from it.

Tests used:
[1] = target: T1, HER2 protein on BT-474 cells (Homo sapiens, UniProt P04626); assay: Competitive binding assay with FITC-compound 5; conditions: 0.1 to 50 µM with 50 µM FITC-compound 5, BT-474 cells
T1 construct: incubated with HER2 expressing BT-474 cells lines along with fixed amount of FITC-compound 5; host or cells: BT-474
Method: BT-474 cell lines were coated on 96 well plates and after 24 hrs cells were washed. Varying amounts of compound 18 (0.1 to 50 µM) was incubated with HER2 expressing BT-474 cells lines along with fixed amount of FITC-compound 5 (50 µM). […] Readings were in triplicate. A graph of relative fluorescence with respect to concentration of compound 18 was plotted. As control fluorescence from FITC-compound 5 and cells without any treatment were used.

[2] = test system: NCI-H1975 cells (EGFR L858R/T790M)
Method: Antiproliferative activity was measured by CellTiter-Glo®, [49] a luminescence-based cell viability assay. In a 96-well plate, 1 × 10^4 cells/well were seeded and incubated overnight at 37°C and 5% CO2. Stock solutions of peptidomimetics were prepared by dissolving 1.5 mg/mL of compounds in DMSO. Stock solution of the compounds were diluted using the serum-free medium to prepare solutions of different concentrations of compounds. […] As controls, cells treated with 1% sodium dodecyl sulfate and 1% dimethyl sulfoxide were used. At the end of the experiment, CellTiter-Glo® reagent was added, and luminescence was measured by a plate reader. A dose response curve was generated using luminescence vs concentration of compounds and IC50 values were obtained using Prism® (GraphPad Software, La Jolla, CA). Experiments were repeated at least three times to obtain standard deviation values.

[3] = test system: MCF-10A normal breast epithelial cell line; assay: Antiproliferative activity (CellTiter-Glo); format: cell-based
From the text: (§1) Erlotinib was from Sigma (Sigma-Aldrich Chemie GmbH).

MCF-7 cells = assay: Antiproliferative activity (CellTiter-Glo); format: cell-based
From the text: as §1

[4] = test system: phosphorylated HER2 in Calu-3 cells; assay: Western blot of phosphorylated HER2; format: cell-based
Method: (§2) BT-474, Calu-3, and SKOV-3 cells were treated with compounds at 1 µM and lapatinib (positive control) at 0.07 µM. Cells without any treatment and cells treated with control compound were employed as negative controls in these studies. Cells were incubated for 36 h, washed and trypsinized. The cell lysate was prepared using cell lysis buffer containing protease inhibitor and phosphatase inhibitor. The protein concentration in each sample was determined using Bradford’s assay. 40 μg of protein from each sample was loaded on Novex® 4–20% tris-glycine gels and western blot analysis was carried out as described in our previous publication. Antibodies for the detection of total HER2 protein (t-HER2) and phosphorylated HER2 protein (p-HER2) were used at 1:3000 dilutions. After addition of the substrate and enhancer solutions from a Super Signal-enhanced chemiluminescence kit (Pierce, Rockford, IL) to the membrane, the images were captured using C-Digit Blot Scanner (LI-COR Biotechnology, Lincoln, NE). A representative Western blot image was used for the final presentation.

[5] = test system: phosphorylated HER2 in BT-474 cells; assay: Western blot of phosphorylated HER2; format: cell-based; conditions: 0.5 and 1 µM
Method: as §2

[6] = target: T2, HER2:HER3 dimerization in transfected U2OS cells (Homo sapiens, UniProt P04626); assay: Enzyme fragment complementation (PathHunter) assay; format: cell-based; conditions: in the presence of 0.3 µM NRG1
T2 construct: host or cells: U2OS
Method: A Pathhunter assay kit was obtained from DiscoverX, and enzyme fragment complementation assay was carried out. U2OS cells transfected with HER3:HER2 were used for the assay. After cells were attached to the wells, they were incubated with compound 18 and controls at different concentration in the presence of neuregulin-1 (NRG-1) at 0.3 µM concentration. After 24 h of incubation, reagents were added, and luminescence was measured and compared with a control without any compound. A plot of luminescence versus concentration was obtained to measure the dimerization of HER3:HER2 and its inhibition by compound 18.

Calu-3 cells = conditions: read-out: IC50 Calu-3 (+); HER2-overexpressing lung cancer cells, 72 h
Method: (§3) Cellular assays were performed using BT-474, SKBR-3, Calu-3, MCF-7, and MCF-10A cells (ATCC). Antiproliferative activity was measured by CellTiter-Glo®, [49] a luminescence-based cell viability assay. In a 96-well plate, 1 × 10^4 cells/well were seeded and incubated overnight at 37°C and 5% CO2. Stock solutions of peptidomimetics were prepared by dissolving 1.5 mg/mL of compounds in DMSO. Stock solution of the compounds were diluted using the serum-free medium to prepare solutions of different concentrations of compounds. Compounds in the medium were added to the wells in triplicate and incubated for 72 h. As controls, cells treated with 1% sodium dodecyl sulfate and 1% dimethyl sulfoxide were used. At the end of the experiment, CellTiter-Glo® reagent was added, and luminescence was measured by a plate reader. A dose response curve was generated using luminescence vs concentration of compounds and IC50 values were obtained using Prism® (GraphPad Software, La Jolla, CA). Experiments were repeated at least three times to obtain standard deviation values.

T1 sequence (P04626 23-1255): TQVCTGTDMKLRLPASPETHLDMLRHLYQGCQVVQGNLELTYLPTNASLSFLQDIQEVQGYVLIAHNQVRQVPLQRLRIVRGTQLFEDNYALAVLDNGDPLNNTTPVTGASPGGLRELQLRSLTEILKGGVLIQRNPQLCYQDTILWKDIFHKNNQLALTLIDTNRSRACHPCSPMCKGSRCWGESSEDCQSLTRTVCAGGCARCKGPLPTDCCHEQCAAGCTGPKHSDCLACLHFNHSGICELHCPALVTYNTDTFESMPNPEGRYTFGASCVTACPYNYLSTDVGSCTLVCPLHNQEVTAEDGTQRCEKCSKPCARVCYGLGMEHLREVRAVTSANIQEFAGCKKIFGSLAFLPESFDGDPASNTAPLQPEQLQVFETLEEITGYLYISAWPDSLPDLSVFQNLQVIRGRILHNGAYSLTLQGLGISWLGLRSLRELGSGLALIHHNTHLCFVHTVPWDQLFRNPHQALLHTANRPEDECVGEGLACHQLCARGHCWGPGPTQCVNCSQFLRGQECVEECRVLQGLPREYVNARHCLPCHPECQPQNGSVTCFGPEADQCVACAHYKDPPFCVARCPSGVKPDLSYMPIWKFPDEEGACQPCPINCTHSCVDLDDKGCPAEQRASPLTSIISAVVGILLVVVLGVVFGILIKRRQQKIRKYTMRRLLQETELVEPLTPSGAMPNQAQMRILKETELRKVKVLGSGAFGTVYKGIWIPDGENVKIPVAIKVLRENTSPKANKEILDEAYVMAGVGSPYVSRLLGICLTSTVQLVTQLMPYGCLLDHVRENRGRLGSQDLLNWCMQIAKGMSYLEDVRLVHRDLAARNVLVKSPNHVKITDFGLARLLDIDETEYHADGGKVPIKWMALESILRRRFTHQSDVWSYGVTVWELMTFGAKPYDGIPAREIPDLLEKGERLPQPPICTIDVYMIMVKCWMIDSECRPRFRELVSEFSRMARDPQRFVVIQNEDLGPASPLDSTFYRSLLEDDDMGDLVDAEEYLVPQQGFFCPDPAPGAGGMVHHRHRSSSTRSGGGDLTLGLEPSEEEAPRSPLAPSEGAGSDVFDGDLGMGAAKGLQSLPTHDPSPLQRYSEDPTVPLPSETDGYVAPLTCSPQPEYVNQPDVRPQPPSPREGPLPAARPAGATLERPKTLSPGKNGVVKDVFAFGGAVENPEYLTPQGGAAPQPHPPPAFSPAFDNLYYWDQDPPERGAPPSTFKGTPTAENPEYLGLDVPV
T2 sequence (P04626 23-1255): as above
Method for SKBR-3 cells: as §3

With `N=C(N)NCCC[C@@H]1NC(=O)[C@H]2CCCN2C(=O)[C@@H]2CCCN2C(=O)[C@H](CCCNC(=N)N)NC(=O)C[C@H](c2cccc3ccccc23)NC(=O)[C@H](Cc2ccccc2)NC(=O)[C@H](CC(=O)O)NC(=O)[C@H](CC(=O)O)NC(=O)[C@H](Cc2ccccc2)NC(=O)C[C@H](c2cccc3ccccc23)NC1=O` [compound 18, Cyclo(1,10)P^1p^2R^3(R-Anapa)^4F^5D^6D^7F^8(R-Anapa)^9R^10] (HELM PEPTIDE1{P.[dP].R.[O=C(C[C@@H](N[*:1])c1cccc2ccccc12)[*:2]].F.D.D.F.[O=C(C[C@@H](N[*:1])c1cccc2ccccc12)[*:2]].R}$PEPTIDE1,PEPTIDE1,1:R1-10:R2$$$V2.0) the IC50 (SKBR-3 cells; read-out: Antiproliferative activity (IC50 µM) SKBR-3 cells, Table 2, compound 18 and diastereoisomers) was 0.194 ± 0.046 µM, the IC50 (SKBR-3 cells; read-out: IC50 SKBR-3(+), HER2-overexpressing breast cancer cells, 72 h) was 0.194 ± 0.046 µM and the “Competition with FITC-compound 5 (cell fluorescence)” value [1] was “decrease in the fluorescence intensity of cells”. The “Synergistic effect with erlotinib (isobologram)” value ([2]; NCI-H1975, compound 18 plus erlotinib) was “synergistic effect”, the IC50 ([2]; read-out: IC50 in NCI-H1975, EGFR L858R/T790M lung cancer cell line) was 4.85 µM and the “Activity in MCF-10A relative to Calu-3 (times less)” value ([3]; IC50 MCF-10A vs Calu-3) was roughly 2000 times. For the same compound, the “Activity in MCF-10A relative to SKBR-3 (times less)” value ([3]; IC50 MCF-10A vs SKBR-3) was roughly 200 times, the “Synergistic effect with erlotinib (isobologram)” value (MCF-7 cells; MCF-7, compound 18 plus erlotinib) was “no synergistic effect” and the IC50 (MCF-7 cells; breast cancer cells that do not overexpress HER2, 72 h) was greater than 50 µM. For the same compound, the “Phosphorylation of HER2 (Western blot)” value [4] was “decreases the phosphorylation of HER2 in a concentration-dependent manner”, the “Phosphorylation of HER2 (Western blot)” value [5] was “decreases the phosphorylation of HER2 in a concentration-dependent manner” and the “Inhibition of HER2:HER3 dimerization (PathHunter)” value [6] was “dimerization of HER2:HER3 is inhibited in a concentration-dependent manner”. The IC50 (Calu-3 cells) was 18 ± 13 nM.
